# Laboratory results reported in PMC9358681 (Biochemical pharmacology, 2022).
# Values joined by “and” are separate entries in the source; they are usually repeats but may differ in a detail not shown here. Equal values may be shown once. Read-outs that look alike come from different tables or passages of the source.
# How the values were obtained:
# human A2BAR [1] = target: T1, human A2BAR (Homo sapiens, UniProt P29275); test: [3H]PSB-603 displacement on CHO-spap-hA2BAR membranes; assay type: binding
# T1 construct: host or cells: CHO-spap
# T1 sequence (P29275 1-332): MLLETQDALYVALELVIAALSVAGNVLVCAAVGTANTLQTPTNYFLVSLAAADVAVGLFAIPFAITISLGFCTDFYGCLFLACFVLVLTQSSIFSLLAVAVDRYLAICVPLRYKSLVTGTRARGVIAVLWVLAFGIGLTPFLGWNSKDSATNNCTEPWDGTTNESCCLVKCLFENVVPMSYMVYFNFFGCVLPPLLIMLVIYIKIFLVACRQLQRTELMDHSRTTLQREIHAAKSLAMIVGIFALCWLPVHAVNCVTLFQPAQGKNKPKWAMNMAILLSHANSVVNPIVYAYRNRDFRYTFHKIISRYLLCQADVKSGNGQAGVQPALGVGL
# human A2BAR [2] = target: T1, human A2BAR; test: [3H]PSB-603 competition association assay; assay type: binding; conditions: for RT: RT = 1/koff; for Kd: read-out: Kinetic KD (koff/kon); for koff: read-out: koff (converted); for kon: read-out: kon (converted)
# Description: In all radioligand binding experiments, CHO-spap-hA2BAR membranes were thawed and homogenized using an Ultra Turrax homogenizer at 24,000 rpm (IKA-Werke GmbH & Co.KG, Staufen, Germany), diluted in assay buffer to the desired concentration (10–30 μg per well or Eppendorf tube). All materials were brought to 25 °C, 30 min prior to the experiment. ZM241385 (10 μM) was used to determine nonspecific binding (NSB).
# Addition of CHO-spap-hA2BAR membrane aliquots initiated the association. The amount of receptor-bound radioligand was determined at different time points up to 3 hr. After 3 hr the incubation was terminated and samples were obtained as described under “Displacement experiments”.
# All competition association data were globally fitted.
# human A2BAR [3] = target: T1, human A2BAR; test: [3H]PSB-603 radioligand washout assay on membranes; assay type: binding; conditions: 10 × IC50, 2 hr pre-incubation, 4x washed, 25 °C
# Description: Were performed at 25 °C and in a total volume of 400 μL. […] Subsequently, the samples were centrifuged at 13200 rpm (16 100g) at 4 °C for 5 min and the supernatant containing unbound ligand was removed. Pellets were resuspended in 1 mL of assay buffer, and samples were incubated for 10 min at 25 °C in the thermomixer. After four centrifugation and washing cycles in total, supernatant was discarded and the membranes were resuspended in a total volume of 400 μL containing 1.5 nM [^3H]PSB-603. After 2 hr at 25 °C incubations were terminated by rapid filtration through GF/C filters using a Brandel harvester and the samples were obtained as described under “Saturation binding experiments”.
# Both the washed and the unwashed conditions were assessed. For the washed condition, the unlabeled compounds were incubated with the target for 2 hr, followed by four wash and centrifugation cycles. Subsequently, [^3H]PSB-603 was co-incubated which led to competition of the radioligand with the unlabeled ligand still bound after the washing procedure. For the unwashed condition no washing was performed before the determination of radioligand displacement. Based on the experimental set-up, the long RT compound and the covalent ligand would be predicted to remain bound to A2BARs, as they would not be easily removed during the washing steps, and thus to result in lower radioligand binding.
# [4] = target: T2, hA2BAR (CHO-spap-hA2BAR cells) (Homo sapiens, UniProt P29275); test: Label-free whole-cell washout assay; assay type: cell-based; conditions: 30 × IC50 antagonist 4 hr, NECA EC80, control without antagonist = 100%
# T2 construct: host or cells: CHO-spap
# T2 sequence (P29275 1-332): T1 sequence (P29275 1-332)
# Description: The assay followed the same initial steps as described in “Determination of pIC50 values for hA2BAR antagonists”. […] Subsequently, wells were washed by aspiration of the medium, followed by the addition of 95 μL fresh serum free medium. For the unwashed cells, the medium was not removed but was pipetted up and down to simulate any mechanical cell stress.
# Data were analyzed using GraphPad Prism 8.0.
# Subsequently, a washout assay was performed and the cell response to the compounds was monitored and evaluated (Fig. 7). […] For the evaluation of the unwashed condition, the medium was not refreshed but was pipetted up and down in order to mimic the possible mechanical stress induced to the washed cells.
# A1 adenosine receptor [5] = target: T3, A1 adenosine receptor (Homo sapiens, UniProt P30542); test: Radioligand binding, human A1 ([3H]R-PIA, HEK-293); conditions: HEK-293, [3H]R-PIA
# T3 sequence (P30542 1-326): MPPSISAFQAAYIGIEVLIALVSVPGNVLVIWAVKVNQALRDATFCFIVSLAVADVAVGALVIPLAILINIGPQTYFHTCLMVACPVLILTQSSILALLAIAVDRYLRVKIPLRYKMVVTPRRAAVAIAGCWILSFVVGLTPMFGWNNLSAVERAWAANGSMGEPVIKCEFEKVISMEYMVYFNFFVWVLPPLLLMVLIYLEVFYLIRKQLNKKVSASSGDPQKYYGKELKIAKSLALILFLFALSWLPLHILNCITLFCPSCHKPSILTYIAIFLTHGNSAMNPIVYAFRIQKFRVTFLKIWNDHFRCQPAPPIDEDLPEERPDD
# Excerpt: (§1) The A2B receptor selectivity was generally low, especially at the rat A2B receptor.
# A1 adenosine receptor [6] = target: T4, A1 adenosine receptor (Rattus norvegicus, UniProt P25099); test: Radioligand binding, rat A1 ([3H]R-PIA, HEK-293); conditions: HEK-293, [3H]R-PIA
# T4 sequence (P25099 1-326): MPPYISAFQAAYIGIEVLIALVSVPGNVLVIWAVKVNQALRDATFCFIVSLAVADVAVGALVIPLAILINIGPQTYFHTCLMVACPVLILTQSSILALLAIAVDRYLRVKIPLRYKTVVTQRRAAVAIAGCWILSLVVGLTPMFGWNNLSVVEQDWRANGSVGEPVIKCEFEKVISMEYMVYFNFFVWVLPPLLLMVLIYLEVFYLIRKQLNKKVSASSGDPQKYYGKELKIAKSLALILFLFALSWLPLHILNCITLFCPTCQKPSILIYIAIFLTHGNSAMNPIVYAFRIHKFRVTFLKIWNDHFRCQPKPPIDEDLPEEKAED
# Excerpt: as §1
# A2A adenosine receptor [7] = target: A2A adenosine receptor (Homo sapiens, UniProt P29274); test: Radioligand binding, human A2A ([3H]CGS21680, HEK-293); conditions: HEK-293, [3H]CGS21680
# A2A adenosine receptor [8] = target: A2A adenosine receptor (Rattus norvegicus, UniProt P30543); test: Radioligand binding, rat A2A ([3H]CGS21680, HEK-293); conditions: rat (r), HEK-293, [3H]CGS21680
# A2B adenosine receptor [9] = target: T5, A2B adenosine receptor (Homo sapiens, UniProt P29275); test: Radioligand binding, human A2B ([125I]I-ABOPX, HEK-293); conditions: HEK-293, [125I]I-ABOPX
# T5 sequence (P29275 1-332): T1 sequence (P29275 1-332)
# A2B adenosine receptor [10] = target: T6, A2B adenosine receptor (Rattus norvegicus, UniProt P29276); test: Radioligand binding, rat A2B ([125I]I-ABOPX, HEK-293); conditions: rat (r), HEK-293, [125I]I-ABOPX
# T6 sequence (P29276 1-332): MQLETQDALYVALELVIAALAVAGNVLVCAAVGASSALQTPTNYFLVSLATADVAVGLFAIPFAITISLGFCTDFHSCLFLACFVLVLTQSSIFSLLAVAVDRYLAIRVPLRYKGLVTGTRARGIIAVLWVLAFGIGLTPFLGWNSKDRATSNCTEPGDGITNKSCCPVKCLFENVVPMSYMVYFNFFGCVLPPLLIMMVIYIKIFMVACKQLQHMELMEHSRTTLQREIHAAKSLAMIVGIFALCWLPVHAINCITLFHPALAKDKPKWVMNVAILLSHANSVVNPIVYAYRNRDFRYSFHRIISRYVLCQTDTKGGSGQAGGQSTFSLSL
# A3 adenosine receptor = target: T7, A3 adenosine receptor (Homo sapiens, UniProt P0DMS8); test: Radioligand binding, human A3 ([125I]I-AB-MECA, HEK-293); conditions: HEK-293, [125I]I-AB-MECA
# T7 sequence (P0DMS8 1-318): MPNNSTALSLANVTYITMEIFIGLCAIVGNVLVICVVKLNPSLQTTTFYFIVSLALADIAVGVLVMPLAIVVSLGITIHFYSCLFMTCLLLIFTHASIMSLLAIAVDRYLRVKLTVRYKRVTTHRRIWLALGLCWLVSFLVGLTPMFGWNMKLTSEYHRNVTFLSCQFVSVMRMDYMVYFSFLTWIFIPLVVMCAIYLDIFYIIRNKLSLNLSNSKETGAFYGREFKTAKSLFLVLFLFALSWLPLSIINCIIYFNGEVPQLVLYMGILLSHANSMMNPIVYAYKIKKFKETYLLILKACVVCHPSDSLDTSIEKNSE
# Excerpt: as §1
# [11] = […] [3H]PSB-603, 2 h, 25 °C, read-out: Ki (converted)
# [12] = competing ligand at 1.0-fold IC50, up to 3 hr, 25 °C
# A2A adenosine receptor (Rattus norvegicus, UniProt P30543), sequence (P30543 whole entry): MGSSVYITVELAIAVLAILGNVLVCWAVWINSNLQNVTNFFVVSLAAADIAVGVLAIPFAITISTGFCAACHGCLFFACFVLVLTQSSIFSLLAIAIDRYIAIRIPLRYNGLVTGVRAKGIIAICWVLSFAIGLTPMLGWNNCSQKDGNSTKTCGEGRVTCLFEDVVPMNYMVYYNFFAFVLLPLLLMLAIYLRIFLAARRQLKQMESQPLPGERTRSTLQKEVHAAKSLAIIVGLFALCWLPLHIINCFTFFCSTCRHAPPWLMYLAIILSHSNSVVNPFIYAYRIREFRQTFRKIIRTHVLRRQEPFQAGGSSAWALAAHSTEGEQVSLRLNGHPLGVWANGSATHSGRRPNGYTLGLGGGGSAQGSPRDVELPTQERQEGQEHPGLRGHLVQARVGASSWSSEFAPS
# A2A adenosine receptor (Homo sapiens, UniProt P29274), sequence (P29274 whole entry): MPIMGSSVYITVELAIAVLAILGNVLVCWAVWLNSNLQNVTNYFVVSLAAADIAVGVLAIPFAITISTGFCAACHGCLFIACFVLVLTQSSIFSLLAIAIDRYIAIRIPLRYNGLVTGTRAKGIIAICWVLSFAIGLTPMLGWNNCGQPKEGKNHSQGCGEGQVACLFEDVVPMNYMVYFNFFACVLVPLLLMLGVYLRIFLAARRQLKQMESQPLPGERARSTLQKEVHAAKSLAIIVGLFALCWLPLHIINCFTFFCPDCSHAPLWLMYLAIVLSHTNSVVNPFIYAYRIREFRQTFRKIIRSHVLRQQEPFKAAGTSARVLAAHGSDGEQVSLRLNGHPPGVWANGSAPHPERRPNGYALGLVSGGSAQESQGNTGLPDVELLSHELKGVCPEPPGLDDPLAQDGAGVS
SMILES,Ki (human A2BAR [1]; [11]) [µM],RT (human A2BAR [2]; [12]),Kd (human A2BAR [2]) [µM],koff (human A2BAR [2]) [s⁻¹],kon (human A2BAR [2]) [M⁻¹ s⁻¹],compound removed (washed away) during the washing procedure (human A2BAR [3]) [%],"washout - %AUC, 1x washed (NECA signaling) ([4]; 1x washed) [%]","washout - %AUC, unwashed (NECA signaling) ([4]; unwashed) [%]",Ki (A1 adenosine receptor [5]) [µM],Ki (A1 adenosine receptor [6]) [µM],Ki (A2A adenosine receptor [7]) [µM],Ki (A2A adenosine receptor [8]) [µM],Ki (A2B adenosine receptor [9]) [µM],Ki (A2B adenosine receptor [10]) [µM],Ki (A3 adenosine receptor) [µM],Ki (human A2BAR [1]; Ki) [µM],Kinetic KD (koff/kon) (human A2BAR [2]; [12])
CCCn1c(=O)c2[nH]c(-c3ccc(OCC(=O)Nc4ccc(C(=O)NC)cc4)cc3)nc2n(CCC)c1=O [Compound 18],0.0199,8 min and 8.0 min and 8.0 ± 0.2 min,0.01 ± 0.00089,0.00208,200000,85,68 ± 7,12 ± 1,–,–,–,–,–,–,–,–,–
"CCCn1c(=O)c2[nH]c(-c3ccc(OCC(=O)N[C@H](C)c4ccccc4)cc3)nc2n(CCC)c1=O [Compound 24, (R)-2-(4-(2,6-dioxo-1,3-dipropyl-2,3,6,7-tetrahydro-1H-purin-8-yl)phenoxy)-N-(1-phenylethyl)acetamide]",0.0152,6.1 ± 1.6 min,0.0075 ± 0.0039,0.00273,367000,–,–,–,0.0273 ± 0.0049,0.00523,0.0644 ± 0.0212,0.375,0.0085 ± 0.0011,0.0211,0.0639 ± 0.0165,–,–
"CCCn1c(=O)c2[nH]c(-c3ccc(OCC(=O)NCc4ccc(C)cc4)cc3)nc2n(CCC)c1=O [Compound 20, 2-(4-(2,6-dioxo-1,3-dipropyl-2,3,6,7-tetrahydro-1H-purin-8-yl)phenoxy)-N-(4-methylbenzyl)acetamide]",0.00908,22 ± 3.5 min,0.012 ± 0.0047,0.000767,66700,–,–,–,0.212 ± 0.068,0.00885,0.0208 ± 0.0024,0.207,0.008 ± 0.0022,0.486,0.14 ± 0.007,–,–
"CCCn1c(=O)c2[nH]c(-c3ccc(OCC(=O)NCc4ccc(Br)cc4)cc3)nc2n(CCC)c1=O [Compound 22, N-(4-bromobenzyl)-2-(4-(2,6-dioxo-1,3-dipropyl-2,3,6,7-tetrahydro-1H-purin-8-yl)phenoxy)acetamide]",0.00573,–,0.0065 ± 0.0036,0.000717,117000,–,–,–,0.586 ± 0.25,0.0327,0.0261 ± 0.0004,0.112,0.0068 ± 0.0008,–,0.274 ± 0.056,–,–
"CCCn1c(=O)c2[nH]c(-c3ccc(OCC(=O)NCc4ccc(F)cc4)cc3)nc2n(CCC)c1=O [Compound 21, 2-(4-(2,6-dioxo-1,3-dipropyl-2,3,6,7-tetrahydro-1H-purin-8-yl)phenoxy)-N-(4-fluorobenzyl)acetamide]",0.0036,–,0.0038 ± 0.0017,0.0011,283000,–,–,–,0.0639 ± 0.0165,0.00655,0.0336 ± 0.0001,0.251,0.0055 ± 0.0012,0.02,0.0899 ± 0.0116,–,–
"CCCn1c(=O)c2[nH]c(-c3ccc(OCC(=O)N[C@@H](C)c4ccccc4)cc3)nc2n(CCC)c1=O [Compound 25, (S)-2-(4-(2,6-dioxo-1,3-dipropyl-2,3,6,7-tetrahydro-1H-purin-8-yl)phenoxy)-N-(1-phenylethyl)acetamide]",0.00811,10 ± 2.3 min,0.0086 ± 0.003,0.00162,183000,–,–,–,0.0237 ± 0.0049,0.0104,0.021 ± 0.0018,0.165,0.0082 ± 0.0025,0.0202,0.156 ± 0.015,–,–
"CCCn1c(=O)c2[nH]c(-c3ccc(OCC(=O)Nc4ccc(N=C=S)cc4)cc3)nc2n(CCC)c1=O [Compound 29, 2-(4-(2,6-dioxo-1,3-dipropyl-2,3,6,7-tetrahydro-1H-purin-8-yl)phenoxy)-N-(4-isothiocyanatophenyl)acetamide]",–,Covalent mechanism (see text),–,–,–,18,–,–,–,–,–,–,–,–,–,0.00928,Covalent mechanism (see text)
